Tests used:
[1] = test system: DDPAC MAPT mini-gene (exon 10 splicing); assay: 4R/3R MAPT mRNA by RT-qPCR, HeLa cells transfected with DDPAC mini-gene; format: cell-based
Experimental: RNA Isolation and Real-Time Quantitative PCR (RT-qPCR). HeLa cells were treated as described in the Luciferase Reporter assay to Study Exon 10 Alternative Splicing. LAN5 cells were seeded in 12-well plates at 0.2×10^6 cells per well, treated with compound or ASO, and incubated for 48 h. Compound stocks prepared in DMSO and ASO stocks prepared in water were diluted in growth medium and added to cells. Total RNA was extracted from cells and analyzed via RT-qPCR to determine levels of 3R and 4R tau mRNA. In brief, the cells were washed with 1×DPBS and then lysed in the well using 300 μL of Lysis Buffer provided in a Quick-RNA MiniPrep kit (Zymo Research), which was used to extract total RNA per the manufacturer's protocol including the on-column DNase I digestion. The concentration of total RNA was measured by NanoDrop 2000 (Thermo Fisher Scientific). Only samples with OD260/OD280>1.8 were carried forward for analysis. Reverse transcription (RT) was carried out on 200 ng of total RNA using a qScript cDNA synthesis kit (QuantaBio) in a total volume of 10 μL according to the manufacturer's protocol. […] 4R/3R ratio were analyzed using ΔΔCt method using Equation 2: […]

LAN5 transcriptome = assay: RNA-seq transcriptome-wide selectivity in LAN5 cells; format: cell-based, human
Experimental: RNA-Seq. LAN5 cells in 12-well plate (~60% confluency) were treated with 2 (1.5 μM), 0.1% (v/v) DMSO (vehicle), 4R-to-3R tau ASO (0.5 μM), or scrambled ASO (0.5 μM) for 48 h. Total RNA was extracted using an RNeasy Mini Kit (Qiagen) per the manufacturer's protocol. Next, rRNA was depleted using NEBNext rRNA depletion modules (E6310L, New England Biosciences) and prepared with NEBNext Ultra II Dir RNA Lib Prep Kit (E7760S, New England Biosciences) according to the manufacturer's protocol. The prepared libraries were processed with NextSeq 500/550 High Output Kit v2.5 (Illumina, 20024907) per the manufacturer's protocol and then sequenced on a NextSeq 500. After sequencing, the BCL files were converted to FASTQ files using basemount/0.12.8.1516 and bcl2fastq/2.17.1.14.^33 The sequencing depth was over 82 million for each sample.
FastQC^34 and RSeQC^35 were used to determine the quality of reads and any overrepresentation of sequences. HISAT2^36 was used to map the reads to the reference human genome (hg19), and the output SAM files were converted to BAM files and sorted by index. Kallisto^37 and NCBI reference sequences (RefSeq)^38 were used for gene quantification to calculate transcripts per million (TPM). Differentially expressed genes were detected with Sleuth^39 and determined by a multiple test corrected p-value<0.05. Splicing event PSI values were quantitated using MISO.^40

[2] = Plasma protein binding by equilibrium dialysis; format: in vitro ADME; details: 37° C., 6 h (2 at 5 μM), read-out: free fraction in plasma
Experimental: Plasma and brain binding. Plasma protein binding was determined by equilibrium dialysis using a Thermo Scientific™ RED Device per the manufacturer's protocol. Each sample was prepared by addition of 2 into 100 μL plasma with final concentration of 5 μM (0.1% (v/v) DMSO). 1×PBS was used as dialysis buffer and was added into the buffer chamber. The plate was incubated with shaking at 37° C. for 6 h. The concentration of 2 in the plasma and buffer compartments was determined as described in Quantitation of 2 in Mouse Plasma and Brain. The free fraction was calculated as [buffer]/[plasma].

[3] = Body weight / tolerability, htau mice; format: in vivo, htau mouse; details: 100 mg/kg p.o. q.o.d., 20 days
Text: hTau Mice Studies. htau mice and WT mice (C57BL/6J) were purchased from Jackson Laboratories. htau mice were maintained in-house through breeding between htau+/− mice. Genotype was confirmed by PCR amplification as previously described.^18 Only homozygous mice were used in in vivo studies. Mice were randomly assigned to a treatment group, which were age- and gender-matched (n=X). In these studies, mice were >9 months of age since cognitive and physiological impairments in htau mice was age-dependent and were not presented in young mice (<4 months) with early-stage tau pathology.^42 Mice were orally administered vehicle (5/5/90 DMSO/Tween-80/H2O) or 100 mg/kg of 2 in the same formulation every other day (q.o.d.). During the treatment period, nesting activity was assessed, as describe in Nesting Activity below. After 20 days, the mice were euthanized (in accordance with guidelines provided by the American Veterinarian Medical Association), and the brain was harvested for analysis. One hemisphere of the brain was frozen at −80° C. for RT-qPCR analyses while the other was used for histological studies.

[4] = test system: phosphorylated tau / NeuN positive neurons in cortex; assay: Brain immunohistochemistry in htau mice (AT8, NeuN); format: in vivo, htau mouse; details: 100 mg/kg p.o. q.o.d.
Experimental: Brain Tissue Histology. Left brain hemispheres of htau mice were harvested for total RNA. Right brain hemispheres (unfrozen) of htau mice were stored in 10% neutral buffered formalin (VWR) for 48 h. Tissue processing, embedding, and sectioning were performed and generated by the Scripps Florida Histology Core. Briefly, tissue was embedded in paraffin using a Sakura Tissue-Tek VIP5 paraffin processor, sectioned at 4 μm, and then mounted on positively charged slides for further immunostaining. The slides were stained on a Leica BondMax Immunostaining platform with the following primary antibodies: AT8 (MN1020, Invitrogen; 1:100 dilution) and NeuN (MAB377B, Chemicon; 1:500 dilution). After the slides were washed three times with 1×DPBS, a DAB Substrate Kit (Vector Laboratories, Inc.) was used to detect the primary antibodies per the manufacturer's protocol. After staining was complete, the slides were dehydrated, cover-slipped with Cytoseal 60 (Thermo Scientific), and imaged with a Leica DMI3000 B upright fluorescent microscope using 20× or 60× objective. Quantification was performed in a blinded fashion using ImageJ in which positivity was identified as aggregates (purple staining of AT8 or brown staining of NeuN) with diameter over 20 μm and staining signal over 185 that were kept constant across all treatment groups.

Structure (SMILES): COc1cc(N)ncc1CCCN(C)CCCn1cnc2c3ccccc3n(C)c2c1=O [Compound 2, 3-(3-((3-(6-amino-4-methoxypyridin-3-yl)propyl)(methyl)amino)propyl)-5-methyl-3,5-dihydro-4H-pyrimido[5,4-b]indol-4-one]
- PSI10 (PSI of MAPT exon 10) vs vehicle ([1]; HeLa, DDPAC mini-gene): downregulated
- inhibition at 1.5 µM ([1]; Homo sapiens, 2 at 1.5 μM, 48 h, HeLa DDPAC mini-gene, read-out: reduction of 4R/3R ratio (mRNA)): 42 ± 3%
- expression of MAPT gene (LAN5 transcriptome; 2 at 1.5 μM or ASO 0.5 μM): Neither 2 nor the ASO altered the expression of MAPT gene
- alternative splicing of MAPT exons (exon 10) (LAN5 transcriptome; 2 at 1.5 μM or tau ASO 0.5 μM): only one significantly reduced
- genes unchanged, percent (LAN5 transcriptome; 2 at 1.5 μM, 48 h): 99.73%
- fraction unbound at 6 h [2]: 0.089 ± 0.009
- change in weight [3]: no change in the weight
- tolerability [3]: well tolerated
- AT8 antibody immunoreactivity (phosphorylated tau) [4]: reduced antibody immunoreactivity throughout the cortex
- NeuN (neuron viability) [4]: enhanced

From patent US20260308158A1, “TARGETING RNAS ASSOCIATED WITH TAUOPATHIES WITH SMALL MOLECULES” (University of Florida Research Foundation, Incorporated, priority 2023, published 2026)
